Results reported in PMC13064811, “The Role of Disulfide Bonds in the GluN1 Subunit in the Early Trafficking and Functional Properties of GluN1/GluN2 and GluN1/GluN3 NMDA Receptors” (The Journal of Neuroscience, 2026).
Like-named read-outs stand apart in the source and are kept apart here.

Tests used:
[1] = target: T1, hGluN1-4a-C744Y/hGluN2A (Homo sapiens, UniProt Q05586+Q12879, C744Y); type: cell-based; conditions: for effect on peak current amplitudes (redox sensitivity): pretreatment with 4 mM DTT or 0.5 mM DTNB, each for 2 min
T1 construct: GluN1-4a (hGluN1-4a; NP_000823.4); GluN2A (hGluN2A; NP_001127879.1); expressed in transfected cells; host or cells: HEK293T
T1 sequence (Q12879 23-1464, other chains not shown): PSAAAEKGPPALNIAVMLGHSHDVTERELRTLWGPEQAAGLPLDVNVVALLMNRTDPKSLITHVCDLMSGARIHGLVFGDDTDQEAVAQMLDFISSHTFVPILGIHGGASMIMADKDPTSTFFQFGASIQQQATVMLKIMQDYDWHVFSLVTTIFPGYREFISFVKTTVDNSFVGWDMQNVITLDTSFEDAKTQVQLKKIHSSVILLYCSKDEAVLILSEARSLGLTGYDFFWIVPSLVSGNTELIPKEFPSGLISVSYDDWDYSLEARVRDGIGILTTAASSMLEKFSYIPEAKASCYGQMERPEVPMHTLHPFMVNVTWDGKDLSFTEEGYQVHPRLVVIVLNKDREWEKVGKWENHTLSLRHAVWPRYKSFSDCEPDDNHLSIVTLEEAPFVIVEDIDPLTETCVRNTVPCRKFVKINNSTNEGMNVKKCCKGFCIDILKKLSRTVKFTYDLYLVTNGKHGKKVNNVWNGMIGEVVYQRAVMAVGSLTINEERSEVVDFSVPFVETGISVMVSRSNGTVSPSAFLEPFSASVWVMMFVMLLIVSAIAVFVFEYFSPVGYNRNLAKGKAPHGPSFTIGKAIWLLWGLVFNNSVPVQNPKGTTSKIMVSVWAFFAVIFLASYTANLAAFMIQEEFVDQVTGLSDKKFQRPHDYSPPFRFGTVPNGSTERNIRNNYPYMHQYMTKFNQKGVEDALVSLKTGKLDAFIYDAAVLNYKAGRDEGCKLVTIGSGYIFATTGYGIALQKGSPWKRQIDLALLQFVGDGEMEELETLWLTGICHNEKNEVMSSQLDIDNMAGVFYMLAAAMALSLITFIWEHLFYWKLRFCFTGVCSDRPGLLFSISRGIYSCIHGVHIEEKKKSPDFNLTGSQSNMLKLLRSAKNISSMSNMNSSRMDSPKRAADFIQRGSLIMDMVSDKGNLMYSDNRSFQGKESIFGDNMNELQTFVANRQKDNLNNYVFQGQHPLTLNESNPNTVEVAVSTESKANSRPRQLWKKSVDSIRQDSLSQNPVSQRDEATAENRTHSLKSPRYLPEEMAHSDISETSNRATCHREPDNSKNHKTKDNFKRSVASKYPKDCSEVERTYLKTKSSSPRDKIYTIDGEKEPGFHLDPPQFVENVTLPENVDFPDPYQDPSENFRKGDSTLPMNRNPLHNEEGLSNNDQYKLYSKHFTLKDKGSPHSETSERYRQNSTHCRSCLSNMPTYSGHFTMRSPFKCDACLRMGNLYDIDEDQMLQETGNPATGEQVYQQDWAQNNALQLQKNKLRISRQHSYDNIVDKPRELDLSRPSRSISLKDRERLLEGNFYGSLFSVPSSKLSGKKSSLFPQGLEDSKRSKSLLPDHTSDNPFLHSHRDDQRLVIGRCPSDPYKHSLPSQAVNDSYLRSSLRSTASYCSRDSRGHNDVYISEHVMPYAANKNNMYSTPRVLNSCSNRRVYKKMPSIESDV

[2] = target: T2, hGluN1-4a/hGluN2A (Homo sapiens, UniProt Q05586+Q12879); type: cell-based; conditions: for effect on peak current amplitudes (redox sensitivity): pretreatment with 4 mM DTT or 0.5 mM DTNB, each for 2 min
T2 construct: GluN1-4a (hGluN1-4a; NP_000823.4); GluN2A (hGluN2A; NP_001127879.1); expressed in transfected cells; host or cells: HEK293T
T2 sequence (Q12879 23-1464, other chains not shown): as above

[3] = system: GluN1-C79S-C308S/GluN2A receptors; conditions: cited from earlier work
[4] = target: T3, hGluN1-4a/hGluN2B (Homo sapiens, UniProt Q05586+Q13224); set-up: method as in Konecny et al., 2024; conditions: ref Konecny et al., 2024, cited from earlier work
T3 construct: GluN1-4a (hGluN1-4a; NP_000823.4); GluN2B (hGluN2B; NP_000825.2); expressed in transfected cells; host or cells: HEK293T

[5] = system: hippocampal neurons expressing YFP-hGluN1-1a or YFP-hGluN1-1a-C744Y subunits; test: NMDA-induced excitotoxicity assay; type: cell-based, rat; conditions: 10 µM memantine; death induced by 30 µM NMDA and 10 µM glycine
[6] = target: T4, hGluN1-4a-C744Y/hGluN2B (Homo sapiens, UniProt Q05586+Q13224, C744Y); type: cell-based
T4 construct: GluN1-4a (hGluN1-4a; NP_000823.4); GluN2B (hGluN2B; NP_000825.2); expressed in transfected cells; host or cells: HEK293T

[7] = system: YFP-GluN1-1a-C744S-C798S/GluN3A
[8] = target: YFP-hGluN1-1a/hGluN2B (Homo sapiens, UniProt Q05586+Q13224); type: cell-based
[9] = system: GluN1-C436S/GluN2B; conditions: cited from earlier work
[10] = target: YFP-hGluN1-1a-C744Y/hGluN2B (Homo sapiens, UniProt Q05586+Q13224, C744Y); type: cell-based
[11] = system: GluN1-C455S/GluN2B; conditions: cited from earlier work
[12] = system: GluN1-C454S/GluN2B; conditions: cited from earlier work
[13] = system: YFP-hGluN1-1a-C744Y/hGluN3A
[14] = target: YFP-hGluN1-1a/hGluN2A (Homo sapiens, UniProt Q05586+Q12879); type: cell-based
[15] = target: GluN1-C744Y/GluN2A receptors; conditions: cited from earlier work
[16] = system: YFP-GluN1-1a/GluN3A
[17] = system: YFP-hGluN1-1a/hGluN3A
[18] = target: YFP-hGluN1-1a-C744Y/hGluN2A (Homo sapiens, UniProt Q05586+Q12879, C744Y); type: cell-based
YFP-hGluN1-1a-C744Y/hGluN2A, sequence (Q12879 23-1464, other chains not shown): as above

[19] = system: YFP-hGluN1/hGluN2A receptors; type: cell-based, rat
[20] = system: YFP-hGluN1/hGluN2B receptors; type: cell-based, rat
[21] = target: T3, hGluN1-4a/hGluN2B; type: cell-based; conditions: pretreatment with 4 mM DTT or 0.5 mM DTNB, each for 2 min
[22] = 1 mM L-glutamate and 100 µM glycine, −60 mV
[23] = offset of inhibition, 1 mM glutamate and 100 µM glycine
[24] = onset of inhibition, 1 mM glutamate and 100 µM glycine
[25] = read-out: EC50 value for glycine

In the case of `O=C(O)c1cc(SSc2ccc([N+](=O)[O-])c(C(=O)O)c2)ccc1[N+](=O)[O-]` [DTNB, 5,5′-dithiobis-(2-nitrobenzoic acid)], the “effect on peak current amplitudes (redox sensitivity)” value (“effect on peak current amplitudes” for short) [1] is reported as “neither condition (DTT or DTNB) altered the peak current amplitudes” and the “effect on peak current amplitudes” value [2] is reported as “neither condition (DTT or DTNB) altered the peak current amplitudes”.
For `CN[C@H](CC(=O)O)C(=O)O` [NMDA], the “increase of the EC50 value for NMDA” value [3] is given as roughly 25%.
In the case of `CC12CC3CC(C)(C1)CC(N)(C3)C2` [memantine], the “h (Hill coefficient), memantine” value [1, 22] is reported as 0.94 ± 0.06, the “τoff 1 μM memantine” value [1, 23] is reported as 458.37 ± 83.04 ms and the “τon 1 μM memantine” value [1, 24] is reported as 292.14 ± 24.73 ms. The “h (Hill coefficient), memantine” value [4, 22] was 1.04 ± 0.03, the “τoff 1 μM memantine” value [4, 23] was 758.93 ± 49.66 ms and the “τon 1 μM memantine” value [4, 24] was 708.99 ± 49.40 ms. The neuronal death [5] was “reduced neuronal death”, the “h (Hill coefficient), memantine” value [2, 22] was 1.04 ± 0.06 and the “τoff 1 μM memantine” value [2, 23] was 510.08 ± 40.38 ms. For the same molecule, the “τon 1 μM memantine” value [2, 24] was 440.47 ± 39.77 ms, the “h (Hill coefficient), memantine” value [6, 22] was 0.86 ± 0.05 and the “τoff 1 μM memantine” value [6, 23] was 811.87 ± 56.87 ms. The “τon 1 μM memantine” value [6, 24] was 519.40 ± 26.19 ms.
In the case of `NCC(=O)O` [glycine], the “h (Hill coefficient), glycine” value [7] is reported as 0.88 ± 0.09, the EC50 ([7]; read-out: Glycine EC50) is reported as 213000 ± 30800 nM and the “Glycine h (Hill coefficient)” value [8] is reported as 0.83 ± 0.06. For the same molecule, the EC50 ([9]; read-out: EC50 glycine) was 720 nM, the “Glycine h (Hill coefficient)” value [10] was 0.80 ± 0.03 and the EC50 ([10]; read-out: Glycine EC50) was 590 ± 80 nM. The EC50 ([11]; read-out: EC50 glycine) was 250 nM, the EC50 ([12]; read-out: EC50 glycine) was 730 nM and the “Glycine h (Hill coefficient)” value [13] was 0.75 ± 0.03. For the same molecule, the EC50 ([13]; read-out: Glycine EC50) was 368000 ± 51000 nM, the EC50 [3, 25] was 2620 nM and the “Glycine h (Hill coefficient)” value [14] was 1.46 ± 0.07. The EC50 ([14]; read-out: Glycine EC50) was 2910 ± 290 nM, the EC50 [15, 25] was 700 nM and the “h (Hill coefficient), glycine” value [16] was 1.26 ± 0.15. For the same molecule, the EC50 ([16]; read-out: Glycine EC50) was 52300 ± 13000 nM, the “Glycine h (Hill coefficient)” value [17] was 0.61 ± 0.02 and the EC50 ([17]; read-out: Glycine EC50) was 70500 ± 10700 nM. For the same molecule, the “Glycine h (Hill coefficient)” value [18] was 1.47 ± 0.08 and the EC50 ([18]; read-out: Glycine EC50) was 3010 ± 410 nM.
In the case of `CN1CCc2cc3c(cc2[C@H]1[C@@H]1OC(=O)c2c1ccc1c2OCO1)OCO3` [bicuculline], the relative surface expression [19] is reported as “no alterations in the relative surface expression levels” and the relative surface expression [20] is reported as “increased relative surface expression”.
With `O[C@@H](CS)[C@@H](O)CS` (racemic) [DTT, dithiothreitol] the “effect on peak current amplitudes” value [1] was “neither condition (DTT or DTNB) altered the peak current amplitudes”, the “effect on peak current amplitudes” value [2] was “neither condition (DTT or DTNB) altered the peak current amplitudes” and the “effect on peak current amplitudes” value ([6]; pretreatment with 4 mM DTT, 2 min) was “did not affect”. For the same molecule, the “effect on peak current amplitudes” value [21] was “reduced the peak current amplitudes”.
In the case of `N[C@@H](CCC(=O)O)C(=O)O` [L-glutamate], the “L-glutamate h (Hill coefficient)” value ([8]; YFP-hGluN1-1a/hGluN2B, −60 mV) is listed as 1.06 ± 0.06, the EC50 ([9]; read-out: EC50 L-glutamate) is listed as 3000 nM and the “L-glutamate h (Hill coefficient)” value ([10]; YFP-hGluN1-1a-C744Y/hGluN2B, −60 mV) is listed as 0.89 ± 0.05. The EC50 ([11]; read-out: EC50 L-glutamate) was 3000 nM, the EC50 ([12]; read-out: EC50 L-glutamate) was 1700 nM and the “L-glutamate h (Hill coefficient)” value ([14]; YFP-hGluN1-1a/hGluN2A, −60 mV) was 1.36 ± 0.10. The EC50 ([15]; read-out: EC50 value for L-glutamate) was 1100 nM and the “L-glutamate h (Hill coefficient)” value ([18]; YFP-hGluN1-1a-C744Y/hGluN2A, −60 mV) was 1.33 ± 0.09.
With `NC1=N[C@H](O)[C@H]2[C@H]3O[C@]4(O)O[C@@H]([C@@H](O)[C@@]2(N1)[C@@H]4O)[C@]3(O)CO` [TTX, tetrodotoxin] the relative surface expression [19] was “no alterations in the relative surface expression levels”.
